ChEMBL document CHEMBL1125730, “Dual inhibitors of thromboxane A2 synthase and 5-lipoxygenase with scavenging activity of active oxygen species. Synthesis of a novel series of (3-pyridylmethyl)benzoquinone derivatives” (J Med Chem, 1991)

Key:
physchem = conditions: octanol/water
Description: Partition coefficient (logP)

[1] = target: T1, Polyunsaturated fatty acid 5-lipoxygenase (Rattus norvegicus, UniProt P12527)
T1 sequence (P12527 whole entry): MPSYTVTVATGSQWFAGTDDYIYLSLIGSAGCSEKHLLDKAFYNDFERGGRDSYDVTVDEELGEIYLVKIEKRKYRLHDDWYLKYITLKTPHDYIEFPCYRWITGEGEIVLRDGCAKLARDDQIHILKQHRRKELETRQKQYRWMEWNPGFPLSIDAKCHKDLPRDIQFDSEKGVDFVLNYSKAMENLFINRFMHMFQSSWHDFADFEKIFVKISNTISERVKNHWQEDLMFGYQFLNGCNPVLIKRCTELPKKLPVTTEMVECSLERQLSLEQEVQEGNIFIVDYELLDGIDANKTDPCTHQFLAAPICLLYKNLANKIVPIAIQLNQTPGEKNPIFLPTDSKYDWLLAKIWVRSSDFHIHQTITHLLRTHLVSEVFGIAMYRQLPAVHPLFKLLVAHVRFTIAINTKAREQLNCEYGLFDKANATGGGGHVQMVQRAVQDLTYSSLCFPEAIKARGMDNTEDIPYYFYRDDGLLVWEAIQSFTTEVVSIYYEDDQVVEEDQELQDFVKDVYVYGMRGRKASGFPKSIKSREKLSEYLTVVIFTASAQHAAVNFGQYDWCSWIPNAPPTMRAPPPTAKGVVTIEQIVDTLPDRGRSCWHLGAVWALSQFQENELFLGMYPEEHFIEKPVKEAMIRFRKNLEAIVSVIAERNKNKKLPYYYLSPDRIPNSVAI

[2] = target: T2, Thromboxane-A synthase (Rattus norvegicus) (UniProt P49430); assay: Inhibition of rat thromboxane A2 synthase evaluated as percent inhibition of thromboxane B2 formation after 24 hr of administration at 10 mg/kg.; type: functional, organism-based; parameters: dose 10 mg/kg
T2 sequence (whole entry): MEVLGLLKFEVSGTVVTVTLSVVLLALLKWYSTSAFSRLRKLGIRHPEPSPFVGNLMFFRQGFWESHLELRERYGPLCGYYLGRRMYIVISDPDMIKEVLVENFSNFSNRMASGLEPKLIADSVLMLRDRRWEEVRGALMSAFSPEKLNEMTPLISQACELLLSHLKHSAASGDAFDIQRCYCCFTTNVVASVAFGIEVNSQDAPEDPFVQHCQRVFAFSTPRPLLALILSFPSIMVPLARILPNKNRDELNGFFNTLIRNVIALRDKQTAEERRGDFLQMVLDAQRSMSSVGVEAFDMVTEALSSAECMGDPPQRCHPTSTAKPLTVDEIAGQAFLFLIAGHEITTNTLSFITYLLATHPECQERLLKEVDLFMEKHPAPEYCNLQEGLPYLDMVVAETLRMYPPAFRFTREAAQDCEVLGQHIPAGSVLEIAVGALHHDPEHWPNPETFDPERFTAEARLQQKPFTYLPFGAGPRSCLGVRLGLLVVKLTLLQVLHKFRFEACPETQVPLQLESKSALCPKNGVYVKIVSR

Equus caballus = organism: Equus caballus; assay: The concentration required to reduce by 50% the amount of LTB4 formed by RBL-1 cells; type: functional, organism-based
Rattus norvegicus [3] = assay: Compound was evaluated […] for percent inhibition of lipid peroxidation in rat brain homogenates at 10e-6 M; type: functional
Rattus norvegicus [4] = assay: Protective effect was evaluated by measuring the urinary total protein by peroral administering 100 mg/kg per day for four weeks in adriamycin induced proteinuria in 7 rats for four weeks.; type: functional, Urine; conditions: route oral
Rattus norvegicus [5] = assay: Protective effect was evaluated by measuring the urinary albumin by peroral administering 100 mg/kg per day for four weeks in adriamycin induced proteinuria 7 rats for four weeks.; type: functional, Urine; conditions: route oral
Rattus norvegicus [6] = assay: Protective effect was evaluated by measuring the urinary total protein by peroral administering 100 mg/kg per day for four weeks in 7 rats for four weeks.; type: functional, Urine; conditions: route oral
[7] = target: T3, Thromboxane-A synthase (Homo sapiens) (UniProt P24557); assay: Inhibitory activity of compound against thromboxane A2 synthase evaluated as percent inhibition of thromboxane B2 formed by incubating PGH-2 with horse platelet microsomes; type: functional; conditions: Equus caballus; target entry is the homologue from another species; concentration not given here
T3 sequence (whole entry): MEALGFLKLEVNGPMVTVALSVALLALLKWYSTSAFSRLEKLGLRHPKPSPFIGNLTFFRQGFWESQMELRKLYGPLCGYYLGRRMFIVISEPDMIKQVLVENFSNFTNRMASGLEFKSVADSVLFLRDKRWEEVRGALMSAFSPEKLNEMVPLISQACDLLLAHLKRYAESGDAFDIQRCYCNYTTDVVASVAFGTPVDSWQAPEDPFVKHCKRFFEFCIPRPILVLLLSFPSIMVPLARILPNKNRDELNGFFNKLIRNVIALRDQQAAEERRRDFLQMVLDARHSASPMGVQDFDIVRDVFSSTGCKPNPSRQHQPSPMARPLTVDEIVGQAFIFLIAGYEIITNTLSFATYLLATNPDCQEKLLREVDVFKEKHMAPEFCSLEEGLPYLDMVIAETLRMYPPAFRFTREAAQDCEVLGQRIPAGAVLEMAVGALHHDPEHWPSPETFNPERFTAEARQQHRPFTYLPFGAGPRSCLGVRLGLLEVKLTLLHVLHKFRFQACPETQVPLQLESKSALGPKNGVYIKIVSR

RBL-1 = assay: cells; conditions: Rattus norvegicus
[8] = target: T3, Thromboxane-A synthase (Homo sapiens); assay: Inhibitory activity of compound against thromboxane A2 synthase evaluated as percent inhibition of thromboxane B2 formation after 24 hr of administration of 10 mg/kg of compound in rat; type: functional, organism-based; parameters: dose 10 mg/kg
Rattus norvegicus [9] = assay: Protective effect was evaluated by measuring the urinary total protein by peroral administering 10 mg/kg per day for four weeks in 8 rats; type: functional, Urine; conditions: route oral
Rattus norvegicus [10] = assay: Protective effect was evaluated by measuring the urinary albumin by peroral administering 10 mg/kg per day for four weeks in 8 rats; type: functional, Urine; conditions: route oral

SMILES | logP (physchem) | IC50 [1] [nM] | inhibition [2] [%] | further results
CC1=C(/C=C/C(=O)O)C(=O)C(C)=C(Cc2cccnc2)C1=O | -0.95 | 8800 | 90 | 
CC1=C(C)C(=O)C(C(CCCC(=O)O)c2cccnc2)=C(C)C1=O (centres undefined) | 0.35 |  |  | IC50 (Equus caballus): 10000 nM; Inhibition (Rattus norvegicus [3]): 37%
CC1=C(Cc2cccnc2)C(=O)c2ccccc2C1=O | 2.77 | 82 | 92 | 
CC1=C(C)C(=O)C(C(CCCCCC(=O)O)c2cccnc2)=C(C)C1=O (centres undefined) | 1.35 | 9300 | 90 | 
CCOC(=O)/C=C/C1=C(C)C(=O)C(Cc2cccnc2)=C(C)C1=O | 3.28 | 8 | 80 | 
CCCCCCCCCCCCCCCCCCOC1=C(O)[C@@H](C(O)CO)OC1=O (some centres undefined) |  |  |  | Total protein (Rattus norvegicus [4]): 122 mg 100g-1 24hr-1; Albumin (Rattus norvegicus [5]): 70 mg 100g-1 24hr-1
CCC(C1=C(C)C(=O)C(C)=C(C)C1=O)c1cccnc1 (centres undefined) | 3.35 | 660 | 75 | 
CC1=C(CCC(=O)O)C(=O)C(C)=C(Cc2cccnc2)C1=O | -0.65 | 5000 | 86 | 
CC1=C(C)C(=O)C(C(c2cccnc2)c2cccc(/C=C(\C)C(=O)O)c2)=C(C)C1=O (centres undefined) | 2.08 | 100000 | 19 | 
CC1=C(C)C(=O)C(/C(=C/CCCCC(=O)O)c2cccnc2)=C(C)C1=O | 1.05 | 7200 | 91 | 
CC1=C(C)C(=O)C(CCCCC#CCCCC#CCO)=C(C)C1=O [DOCEBENONE] |  | 90 |  | Total protein (Rattus norvegicus [4]): 95 mg 100g-1 24hr-1; Albumin (Rattus norvegicus [5]): 49 mg 100g-1 24hr-1
COC1=C(OC)C(=O)C(Cc2cccnc2)=C(C)C1=O | 0.61 |  | 74 | 
CC1=C(/C=C(\C)C(=O)O)C(=O)C(C)=C(Cc2cccnc2)C1=O | -0.65 | 8700 | 73 | 
O=C(O)CCCC/C=C(\c1ccccc1)c1cccnc1 [(E)-ISBOGREL] |  |  | 90 | Total protein (Rattus norvegicus [6]): 131 mg 100g-1 24hr-1; Albumin (Rattus norvegicus [5]): 75 mg 100g-1 24hr-1
CCCCCCC(C1=C(C)C(=O)C(C)=C(C)C1=O)c1cccnc1 (centres undefined) | 5.35 | 73 | 70 | 
CC1=C(C)C(=O)C(C(C)c2cccnc2)=C(C)C1=O (centres undefined) | 2.85 | 9500 | 90 | inhibition [7]: 89%
CCCCC(C1=C(C)C(=O)C(C)=C(C)C1=O)c1cccnc1 (centres undefined) | 4.35 | 830 | 97 | 
CCCCC/C=C(/C1=C(C)C(=O)C(C)=C(C)C1=O)c1cccnc1 | 5.05 |  |  | IC50 (RBL-1): 260 nM
CCCCC/C=C(\C1=C(C)C(=O)C(C)=C(C)C1=O)c1cccnc1 | 5.05 |  |  | IC50 (Equus caballus): 220 nM
CC1=C(C)C(=O)C(C(CCCCC(=O)O)c2cccnc2)=C(C)C1=O (centres undefined) | 0.85 | 60000 | 64 | 
CC(=O)OCCCCC(C1=C(C)C(=O)C(C)=C(C)C1=O)c1cccnc1 (centres undefined) | 4.08 | 250 |  | inhibition [8]: 37%
CC1=C(C)C(=O)C(C(CCCCCO)c2cccnc2)=C(C)C1=O (centres undefined) | 3.69 | 100 |  | inhibition [8]: 72%
CC1=C(C)C(=O)C(Cc2cccnc2)=C(C)C1=O | 2.55 | 62 | 86 | Total protein (Rattus norvegicus [9]): 60 mg 100g-1 24hr-1; Albumin (Rattus norvegicus [10]): 39 mg 100g-1 24hr-1
CC1=C(C)C(=O)C(C(c2cccnc2)c2cccc(CCC(=O)O)c2)=C(C)C1=O (centres undefined) | 2.08 | 100000 |  | 
CC1=C(C)C(=O)C(C(CCCCCCC(=O)O)c2cccnc2)=C(C)C1=O (centres undefined) | 1.85 | 7000 | 97 | 
CC1=C(C)C(=O)C(C(CCCCO)c2cccnc2)=C(C)C1=O (centres undefined) | 3.19 | 100 | 40 | 
CC(=O)OCCCCCC(C1=C(C)C(=O)C(C)=C(C)C1=O)c1cccnc1 (centres undefined) | 4.58 | 87 |  | inhibition [8]: 84%
